Results on 18 compounds are retold here after patent US12060349B2, “Glucosylceramide synthase inhibitors” (Genzyme Corporation, priority 2012, dated 2024).

Molecules are shown by their SMILES. pIC50: −log10 of the molar value.

Assay [1] deals with T1, glucosylceramide synthase (Homo sapiens, UniProt Q16739).
T1 construct: Microsomes were isolated from A375 human melanoma cells; endogenous in cells; host or cells: A375 human melanoma cells (microsomal fraction, 100,000 g pellet)
T1 sequence (Q16739 1-394): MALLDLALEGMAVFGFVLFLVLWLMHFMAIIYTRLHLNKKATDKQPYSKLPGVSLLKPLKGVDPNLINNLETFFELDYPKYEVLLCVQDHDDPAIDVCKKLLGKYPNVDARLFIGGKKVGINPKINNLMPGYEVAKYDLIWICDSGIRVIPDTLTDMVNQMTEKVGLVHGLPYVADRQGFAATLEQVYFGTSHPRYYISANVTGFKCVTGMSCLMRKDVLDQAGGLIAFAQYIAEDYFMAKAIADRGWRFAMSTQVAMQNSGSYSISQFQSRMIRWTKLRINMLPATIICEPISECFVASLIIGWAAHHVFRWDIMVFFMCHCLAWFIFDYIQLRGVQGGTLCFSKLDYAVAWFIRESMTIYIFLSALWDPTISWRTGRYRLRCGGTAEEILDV
Briefly: microsomal assay measuring conversion of ceramide to glucosylceramide by HPLC (GCS IC50). Conditions: concentration causing 50% inhibition of glucosylceramide synthase activity. Type of assay: biochemical. In outline:
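IC50 is the compound concentration halving glucosylceramide synthase activity. Activity was measured in microsomes, with HPLC quantifying glucosylceramide formed from ceramide.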

Assay [2] has as its system GM3 expression on the cell surface, B16 mouse melanoma cells. Put plainly: cell based phenotypic assay, cell surface GM3 by antibody mediated immunofluorescence, B16 (GM3 B16 IC50). Conditions: Mus musculus, B16 mouse melanoma cells; 50% inhibition of GM3 expression on the cell surface; read-out: GM3 B16 IC50. In outline: (§1)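 Two melanoma lines, mouse B16 and human C32, were treated and surface GM3 quantified by antibody immunofluorescence for IC50. A parallel viability readout gives the concentration killing 50% of cells, with values over 10 indicating no cell death.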

Assay [3] relates to GM3 expression on the cell surface, C32 human melanoma cells. Put plainly: cell based phenotypic assay, cell surface GM3 by antibody mediated immunofluorescence, C32 (GM3 C32 IC50). Conditions: Homo sapiens, C32 human melanoma cells; 50% inhibition of GM3 expression on the cell surface; read-out: GM3 C32 IC50. In outline: as §1
The subject of another assay is B16 mouse melanoma cells. Briefly: cell viability in the B16 cell-based assay (Viability, B16 IC50). Conditions: Mus musculus, B16, B16 cells; concentration causing 50% cell death; values greater than 10 represent a lack of cell death; read-out: Viability, B16 IC50. In outline:
(§2)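 Cell death was scored within the cell-based GM3 experiment for each line. The viability value is the concentration producing 50% death, and numbers exceeding 10 signify no cytotoxicity.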

The subject of the next assay is C32 human melanoma cells. Briefly: cell viability in the C32 cell-based assay (Viability, C32 IC50). Conditions: Homo sapiens, C32, C32 cells; concentration causing 50% cell death; values greater than 10 represent a lack of cell death; read-out: Viability, C32 IC50. In outline:
as §2

For orientation: pIC50 means the negative decadic logarithm of the IC50, by convention in mol/L.

With `CC1(NC(=O)C2CCN(c3ccnc(-c4ccc(F)cc4)c3)CC2)CCN2CCC1CC2` (stereo not drawn) [Example 108, 1-(2-(4-Fluorophenyl)pyridin-4-yl)-N-(4-methyl-1-azabicyclo[3.2.2]nonan-4-yl)piperidine-4-carboxamide], the pIC50 is 7.09 in assay [1]; 5.97 in assay [2]; 7.27 in assay [3]; 5.25 with B16 mouse melanoma cells; 5.50 in the assay with C32 human melanoma cells.
For the compound `CN(C(=O)C1CCN(c2nccc(-c3ccc(F)cc3)n2)CC1)C1CN2CCC1CC2` (stereo not drawn) [Example 109, 1-(4-(4-Fluorophenyl)pyrimidin-2-yl)-N-methyl-N-(quinuclidin-3-yl)piperidine-4-carboxamide], the pIC50 is 7.40 in assay [1]; 5.65 in assay [2]; 8.05 in assay [3]; 5.02 in the assay on B16 mouse melanoma cells; 5.50 with C32 human melanoma cells.
Taken in the same sequence, the figures for `O=C(OC1CCN2CCC1CC2)C1CCN(c2nccc(-c3ccc(F)cc3)n2)CC1` (stereo not drawn) [Example 110, 1-Azabicyclo[3.2.2]nonan-4-yl 1-(4-(4-fluorophenyl)pyrimidin-2-yl)piperidine-4-carboxylate] were 8.91, 6.28, 8.62, 5.42 and 6.00.
The corresponding values for `COCCCOc1ccc(-c2nc(N3CC(C(=O)NC4(C)CCN5CCC4CC5)C3)ncc2F)cc1` (stereo not drawn) [Example 111, 1-(5-Fluoro-4-(4-(3-methoxypropoxy)phenyl)pyrimidin-2-yl)-N-(4-methyl-1-azabicyclo[3.2.2]nonan-4-yl)azetidine-3-carboxamide] are 8.70, 6.92, 9.72, 5.44 and 6.00.
For the compound `CC1(NC(=O)C2CN(c3ncc(F)c(-c4ccc(F)cc4)n3)C2)CCN2CCC1CC2` (stereo not drawn) [Example 112, 1-(5-Fluoro-4-(4-fluorophenyl)pyrimidin-2-yl)-N-(4-methyl-1-azabicyclo[3.2.2]nonan-4-yl)azetidine-3-carboxamide], the pIC50 in assay [1] is 8.13; in assay [2], 6.91; in assay [3], 9.62; in the assay on B16 mouse melanoma cells, 5.14; in the assay on C32 human melanoma cells, 6.50.
The corresponding values for `CC1(NC(=O)C2CN(c3nccc(-c4ccc(F)cc4)n3)C2)CCN2CCC1CC2` (stereo not drawn) [Example 113, 1-(4-(4-Fluorophenyl)pyrimidin-2-yl)-N-(4-methyl-1-azabicyclo[3.2.2]nonan-4-yl)azetidine-3-carboxamide] are 8.08, 6.26, 9.05, not above 5.00 and 6.50.
The corresponding values for `CC1(NC(=O)C2CN(c3cccc(-c4ccc(F)cc4)c3)C2)CCN2CCC1CC2` (stereo not drawn) [Example 114, 1-(4′-Fluoro-[1,1′-biphenyl]-3-yl)-N-(4-methyl-1-azabicyclo[3.2.2]nonan-4-yl)azetidine-3-carboxamide] are 7.29, 6.57, 7.95, 5.46 and 6.00.
Taken in the same sequence, the figures for `CC1(NC(=O)C2CCN(c3nccc(Oc4ccc(F)cc4)n3)CC2)CCN2CCC1CC2` (stereo not drawn) [Example 115, 1-(4-(4-Fluorophenoxy)pyrimidin-2-yl)-N-(4-methyl-1-azabicyclo[3.2.2]nonan-4-yl)piperidine-4-carboxamide] were 8.61, 8.05, 9.85, 5.03 and 7.33.
With `CC1(NC(=O)C2(F)CCN(c3nccc(Oc4ccc(F)cc4)n3)CC2)CCN2CCC1CC2` (stereo not drawn) [Example 116, 4-Fluoro-1-(4-(4-fluorophenoxy)pyrimidin-2-yl)-N-(4-methyl-1-azabicyclo[3.2.2]nonan-4-yl)piperidine-4-carboxamide], the pIC50 in assay [1] is 8.84; in assay [2], 7.80; in assay [3], 9.81; with B16 mouse melanoma cells, 5.24; with C32 human melanoma cells, 7.00.
`CC1(NC(=O)C2(F)CCN(c3ncnc(Oc4ccc(F)cc4)n3)CC2)CCN2CCC1CC2` (stereo not drawn) [Example 117, 4-Fluoro-1-(4-(4-fluorophenoxy)-1,3,5-triazin-2-yl)-N-(4-methyl-1-azabicyclo[3.2.2]nonan-4-yl)piperidine-4-carboxamide]: the negative-log IC50 (pIC50) is 6.77 in assay [1]; 7.05 in assay [2]; 8.04 in assay [3]; not above 5.00 with B16 mouse melanoma cells; 6.00 in the assay with C32 human melanoma cells.
As for `COCCOc1ccc(Oc2nc(N3CCC(F)(C(=O)NC4(C)CN5CCC4CC5)CC3)ncc2F)cc1` (stereo not drawn) [Example 118, 4-Fluoro-1-(5-fluoro-4-(4-(2-methoxyethoxy)phenoxy)pyrimidin-2-yl)-N-(3-methylquinuclidin-3-yl)piperidine-4-carboxamide], the pIC50 was 8.60 in assay [1]; 7.20 in assay [2]; 8.94 in assay [3]; 5.33 in the assay on B16 mouse melanoma cells; 6.00 in the assay on C32 human melanoma cells.
As to `CC1(NC(=O)C2(F)CCN(c3nccc(Oc4ccc(C#N)cc4)n3)CC2)CN2CCC1CC2` (stereo not drawn) [Example 119, 1-(4-(4-Cyanophenoxy)pyrimidin-2-yl)-4-fluoro-N-(3-methylquinuclidin-3-yl)piperidine-4-carboxamide], the pIC50 is 8.17 in assay [1]; 7.26 in assay [2]; 9.32 in assay [3]; not above 5.00 in the assay with B16 mouse melanoma cells; 6.50 with C32 human melanoma cells.
Taken in the same sequence, the figures for `CC1(NC(=O)C2(F)CCN(c3nccc(Oc4ccc(C#N)cc4)n3)CC2)CCN2CCC1CC2` (stereo not drawn) [Example 120, 1-(4-(4-Cyanophenoxy)pyrimidin-2-yl)-4-fluoro-N-(4-methyl-1-azabicyclo[3.2.2]nonan-4-yl)piperidine-4-carboxamide] were 8.39, 7.73, 9.48, not above 5.00 and 6.50.
Taken in the same sequence, the figures for `CC1(NC(=O)C2(F)CCN(c3ncc(C#N)c(Oc4ccc(F)cc4)n3)CC2)CN2CCC1CC2` (stereo not drawn) [Example 122, 1-(5-Cyano-4-(4-fluorophenoxy)pyrimidin-2-yl)-4-fluoro-N-(3-methylquinuclidin-3-yl)piperidine-4-carboxamide] were 8.36, 6.95, 9.19, not above 5.00 and 6.50.
For `CC1(NC(=O)C2(F)CCN(c3nccc(OC4CCOCC4)n3)CC2)CCN2CCC1CC2` (stereo not drawn) [Example 123, 4-Fluoro-N-(4-methyl-1-azabicyclo[3.2.2]nonan-4-yl)-1-(4-((tetrahydro-2H-pyran-4-yl)oxy)pyrimidin-2-yl)piperidine-4-carboxamide], the pIC50 in assay [1] is 7.37; in assay [2], 6.65; in assay [3] it was 8.65; in the assay with B16 mouse melanoma cells, not above 5.00; with C32 human melanoma cells, 6.00.
The corresponding values for `CC1(NC(=O)C2(F)CCN(c3nccc(OCc4ccc(F)cc4)n3)CC2)CCN2CCC1CC2` (stereo not drawn) [Example 124, 4-Fluoro-1-(4-((4-fluorobenzyl)oxy)pyrimidin-2-yl)-N-(4-methyl-1-azabicyclo[3.2.2]nonan-4-yl)piperidine-4-carboxamide] are 9.26, 7.75, 10.07, 5.47 and 7.00.
As for `CC1(NC(=O)C2(F)CCN(c3nccc(OCc4ccc(F)cc4)n3)CC2)CN2CCC1CC2` (stereo not drawn) [Example 125, 4-Fluoro-1-(4-((4-fluorobenzyl)oxy)pyrimidin-2-yl)-N-(3-methylquinuclidin-3-yl)piperidine-4-carboxamide], the pIC50 is 9.19 in assay [1]; 7.75 in assay [2]; 10.29 in assay [3]; 5.37 in the assay on B16 mouse melanoma cells; 6.80 with C32 human melanoma cells.
The corresponding values for `CC1(NC(=O)C2(F)CCN(c3cncc(Oc4ccc(F)cc4)n3)CC2)CCN2CCC1CC2` (stereo not drawn) [Example 126, 4-Fluoro-1-(6-(4-fluorophenoxy)pyrazin-2-yl)-N-(4-methyl-1-azabicyclo[3.2.2]nonan-4-yl)piperidine-4-carboxamide] are 8.80, 7.44, 9.14, 5.20 and 6.00.
